How the values were obtained:
[1] = Phase I anticonvulsant activity (MES and scMet tests); format: in vivo; details: Mus musculus, male albino mice, read-out: Activity, Phase I (active dose)
Procedure: They afford protection in both the scMet and MES seizure models. The 1-p-chlorophenyl-5-(2-oxo-1-pyrrolidinyl)-1,2,3-triazoline is active in the 100 mg/kg dose and the 1-phenyl-5-(2-oxo-1-pyrrolidinyl)-1,2,3-triazoline is active in the 300 mg/kg dose.
(§1) The anticonvulsant activity was evaluated by subjecting male albino mice to the MES test and the scMet test. The maximal electroshock seizure test (MES) was performed according to the method of Swinyard et al (J. Pharmacol. Exp. Ther. 106, 319, 1952), and abolition of the hind limb tonic extensor component of the maximal seizures was defined as protection. In the subcutaneous pentylenetetrazole seizure threshold test (scMet), 85 mg/kg of pentylenetetrazol was administered as a 0.5% solution subcutaneously in the posterior midline, and failure to observe even a threshold seizure (a single episode of clonic spasms of at least 5-s duration) was defined as protection.

[2] = subcutaneous pentylenetetrazole (Metrazole) seizure threshold (scMet) test; format: in vivo; details: Mus musculus, sc; Phase II; male albino mice; 85 mg/kg pentylenetetrazol s.c.
Procedure: as §1

[3] = in vivo; set-up: species or system mice; details: mouse
Procedure: Neurotoxicity was evaluated by the rotorod ataxia test (Dunham et al, J. Am. Pharm. Assoc. Sci. Ed., 46, 208, 1957). The animal was placed on a wooden rod of 2.8-cm diameter rotating at 6 rpm. Normal mice can remain on a rod rotating at this speed indefinitely.

[4] = maximal electroshock seizure (MES) test; format: in vivo; details: Mus musculus; Phase II; male albino mice
Procedure: as §1

Row | Structure (SMILES) | minimal effective dose [1] | ED50 [2] | TD50 [3] | ED50 [4]
1 | O=C1CCCN1C1CN=NN1c1ccc(Cl)cc1 (centres unmarked) [1-p-chlorophenyl-5-(2-oxo-1-pyrrolidinyl)-1,2,3-triazoline] | 100 mg/kg | 77.2 mg/kg | 249 mg/kg | 116 mg/kg
2 | O=C1CCCN1C1CN=NN1c1ccccc1 (centres unmarked) [1-phenyl-5-(2-oxo-1-pyrrolidinyl)-1,2,3-triazoline] | 300 mg/kg |  |  | 

Reference: US4820721A, “1-aryl-5-(2-oxo-1-pyrrolidinyl)-1,2,3-triazolines as novel anticonvulsants” (priority 1988, dated 1989)
